Results: patent US20260206754A1, “HETEROARYL COMPOUNDS FOR THE CONTROL OF INVERTEBRATE PESTS” (priority 2022, published 2026)
Where two headings read alike, the source gives them in different places.

How the values were obtained:
Assay type in all cases: in vivo
[1] = test system: Southern armyworm (Spodoptera eridania), 2nd instar larvae; test: B.3 Southern armyworm, 2nd instar larvae, foliar spray on lima bean plants; conditions: 96 h, 4 days after treatment, read-out: mortality in comparison with untreated controls
Method: B.3 Southern Armyworm (Spodoptera eridania), 2nd Instar Larvae
The active compounds were formulated by a Tecan liquid handler in 100% cyclohexanone as a 10,000-ppm solution supplied in tubes. The 10,000-ppm solution was serially diluted in 100% cyclohexanone to make interim solutions. These served as stock solutions for which final dilutions were made by the Tecan in 50% acetone:50% water (v/v) into 10 or 20 ml glass vials. A non-ionic surfactant (Kinetic@) was included in the solution at a volume of 0.01% (v/v). The vials were then inserted into an automated electrostatic sprayer equipped with an atomizing nozzle for application to plants/insects. Lima bean plants (variety Sieva) were grown 2 plants to a pot and selected for treatment at the 1st true leaf stage. Test solutions were sprayed onto the foliage by an auto-mated electrostatic plant sprayer equipped with an atomizing spray nozzle. The plants were dried in the sprayer fume hood and then removed from the sprayer. Each pot was placed into perforated plastic bags with a zip closure. Ten to 11 armyworm larvae were placed into the bag and the bags zipped closed. Test plants were maintained in a growth room at about 25° C. and about 20-40% relative humidity for 4 days, avoiding direct exposure to fluorescent light (14:10 light:dark photoperiod) to prevent trapping of heat inside the bags. Mortality and reduced feeding were assessed 4 days after treatment, compared to untreated control plants.

[2] = test system: green peach aphid (Myzus persicae); test: B.6 Green peach aphid, systemic test with artificial diet under membrane
Method: (§1) If not otherwise specified, the test solutions were prepared as follow: The active compound was dissolved at the desired concentration in a mixture of 1:1 (vol:vol) distilled water:acetone. The test solution was prepared on the day of use.
B.6 Green Peach Aphid (Myzus persicae)
For evaluating control of green peach aphid (Myzus persicae) through systemic means, the test unit consisted of 96-well-microtiter plates containing liquid artificial diet under an artificial membrane.
The compounds were formulated using a solution containing 75% v/v water and 25% v/v DMSO. Different concentrations of formulated compounds were pipetted into the aphid diet, using a custom built pipetter, at two replications.
After application, 5-8 adult aphids were placed on the artificial membrane inside the microtiter plate wells. The aphids were then allowed to suck on the treated aphid diet and incubated at about 23±1° C. and about 50±5% relative humidity for 3 days. Aphid mortality and fecundity was then visually assessed.

[3] = test system: yellow fever mosquito (Aedes aegypti); test: whole plant or invertebrate; conditions: for mortality at 2500 ppm: 48 h, larval mortality after 2 days, read-out: mortality in comparison with untreated controls
Method: as §1
B.5 Yellow Fever Mosquito (Aedes aegypti)
For evaluating control of yellow fever mosquito (Aedes aegypti) the test unit consisted of 96-well-microtiter plates containing 200 μl of tap water per well and 5-15 freshly hatched A. aegypti larvae.
The active compounds were formulated using a solution containing 75% (v/v) water and 25% (v/v) DMSO. Different concentrations of formulated compounds or mixtures were sprayed onto the insect diet at 2.5 μl, using a custom-built micro atomizer, at two replications.
After application, microtiter plates were incubated at 281° C., 80±5% RH for 2 days. Larval mortality was then visually assessed.

[4] = test system: boll weevil (Anthonomus grandis); test: B.2 Boll weevil, 96-well microtiter plate diet test with eggs; conditions: Anthonomus grandis; for mortality at 2500 ppm: 120 h, egg and larval mortality after 5 days, read-out: mortality in comparison with untreated controls
Method: as §1
B.2 Boll Weevil (Anthonomus grandis)
For evaluating control of boll weevil (Anthonomus grandis) the test unit consisted of 96-well-microtiter plates containing an insect diet and 5-10 A. grandis eggs.
The compounds were formulated using a solution containing 75% v/v water and 25% v/v DMSO. Different concentrations of formulated compounds were sprayed onto the insect diet at 5 μl, using a custom-built micro atomizer, at two replications.
After application, microtiter plates were incubated at about 25±1° C. and about 75±5% relative humidity for 5 days. Egg and larval mortality was then visually assessed.

[5] = test system: tobacco budworm (Heliothis virescens); test: B.1 Tobacco budworm, 96-well microtiter plate diet test with eggs; conditions: for mortality at 2500 ppm: 120 h, egg and larval mortality after 5 days, read-out: mortality in comparison with untreated controls
Method: as §1
B.1 Tobacco Budworm (Heliothis virescens)
For evaluating control of tobacco budworm (Heliothis virescens) the test unit consisted of 96-well-microtiter plates containing an insect diet and 15-25 H. virescens eggs.
The compounds were formulated using a solution containing 75% v/v water and 25% v/v DMSO. Different concentrations of formulated compounds were sprayed onto the insect diet at 10 μl, using a custom-built micro atomizer, at two replications.
After application, microtiter plates were incubated at about 28±1° C. and about 80±5% relative humidity for 5 days. Egg and larval mortality was then visually assessed.

[6] = 72 h, aphid mortality after 3 days, read-out: mortality in comparison with untreated controls

SMILES | mortality at 300 ppm [1] | mortality at 90 ppm ([2]; 90 ppm, comparative experiment C.3) | mortality at 2500 ppm [2, 6] | mortality at 2500 ppm [3] | mortality at 2500 ppm [4] | mortality at 30 ppm ([4]; 30 ppm, comparative experiment C.3) | mortality at 2500 ppm [5] | mortality at 30 ppm ([2]; comparative experiment C.2) | mortality at 2500 ppm ([2]; comparative experiment C.5, read-out: B.6, 2500 ppm (mortality)) | mortality at 80 ppm ([3]; 80 ppm, comparative experiment C.5, read-out: B.5, 80 ppm (mortality)) | mortality at 90 ppm ([4]; comparative experiment C.5) | mortality at 30 ppm ([2]; comparative experiment C.4) | mortality at 90 ppm ([3]; 90 ppm, comparative experiment C.4, read-out: B.5, 90 ppm (mortality)) | mortality at 90 ppm ([4]; comparative experiment C.4) | mortality at 30 ppm ([2]; comparative experiment C.1) | mortality at 90 ppm ([5]; 90 ppm, comparative experiment C.1)
CC(NC(=O)c1cc(C(F)(F)F)cc(C(F)(F)F)c1)c1nccnc1-n1cc(-c2cccnc2)nn1 (stereo not drawn) [I-9] | ≥ 75% | 100% | ≥ 75% | ≥ 75% | ≥ 75% | 100% | ≥ 75% |  |  |  |  |  |  |  |  | 
CC(NC(=O)c1cc(C(F)(F)F)cc(C(F)(F)F)c1)c1nccnc1-n1ncc(-c2cccnc2)n1 (stereo not drawn) [I-8] | ≥ 75% |  | ≥ 75% | ≥ 75% | ≥ 75% |  | ≥ 75% | 100% |  |  |  |  |  |  |  | 
CC(NC(=O)c1cc(C(F)(F)F)cc(C(F)(F)F)c1)c1nccnc1-n1cc(S(C)(=O)=O)cn1 (stereo not drawn) [I-17, N-[1-[3-(4-methylsulfonylpyrazol-1-yl)pyrazin-2-yl]ethyl]-3,5-bis(trifluoromethyl)benzamide] | ≥ 75% |  | ≥ 75% | ≥ 75% | ≥ 75% |  | ≥ 75% |  | 100% | 100% | 100% |  |  |  |  | 
CC(NC(=O)c1cc(C(F)(F)F)cc(C(F)(F)F)c1)c1nccnc1-n1cc(-c2nccs2)cn1 (stereo not drawn) [I-51] | ≥ 75% |  | ≥ 75% | ≥ 75% | ≥ 75% |  | ≥ 75% |  |  |  |  | 100% | 100% | 100% |  | 
CC(NC(=O)c1cc(C(F)(F)F)cc(C(F)(F)F)c1)c1nccnc1-n1ncc(-c2ccccn2)n1 (stereo not drawn) [I-14, N-[1-[3-[4-(2-pyridyl)triazol-2-yl]pyrazin-2-yl]ethyl]-3,5-bis(trifluoro-methyl)benzamide] | ≥ 75% |  | ≥ 75% | ≥ 75% | ≥ 75% |  | ≥ 75% |  |  |  |  |  |  |  | 100% | 100%
